# According to PMC7083880 (Nature Communications, 2020):
# System: Fluc-int-UGA construct in HEK293FT cells
# Assay: Amino-acid identification assay (mass spectrometry)
# Format: cell-based, human
# Settings: 25 µM DAP
# Source text: To elucidate the molecular mechanism of DAP-promoted UGA readthrough, mass spectrometry was used to identify the amino acid incorporated at the PTC position into firefly luciferase synthesized from the Fluc-int-UGA construct. […] The luciferase protein was digested with […] to generate a PTC-position-containing peptide compatible with mass spectrometry analysis. Using this approach, we found only one amino acid, tryptophan, incorporated at the PTC position in the peptide of interest (Fig. 5a).
# Firefly luciferase from HEK293FT cells transfected with the Fluc-int-UGA construct was immunoprecipitated and digested with trypsin. The MS/MS spectrum of the peptide containing the PTC position and the sequence determination are shown. […] Readthrough efficiency was determined by measuring luciferase activity in HeLa cells co-transfected with the firefly luciferase construct described in Fig. 1b and with increasing amounts of an expression vector for either FTSJ1 or CTU1 (0.5, 1, or 2 µg). […] A molecular weight marker is indicated to the left of each gel. p-values (p) were calculated using Student’s t-test. […]
# Sixty million HEK293FT cells were transfected with 120 µg Fluc-int-UGA construct with CaCl2 in HBSS buffer. […] The immunoprecipitate was subjected to 10% SDS–PAGE and then firefly luciferase was detected by Coomassie staining. […]
compound,measurement,value
"Nc1nc(N)c2[nH]cnc2n1 [DAP, 2,6-diaminopurine]",Amino acid incorporated at the PTC position,tryptophan
